Assay results reported in patent US4792632A, “Bisacylphosphine oxides, the preparation and use thereof” (ESPE Fabrik Pharmazeutischer Praparate GmbH, priority 1984, dated 1988).
Blank lines part the entries; values can stand above or below the compound they belong to.

Tests used:
[1] = Attained thickness of cured layer of resin solution (curing depth) after storage, dental radiator 20 s; conditions: for Layer Thickness after 1 month / Layer Thickness after 24 hrs: 0.5% by weight photoinitiator in solution I, 20 s exposure; for Layer Thickness after 1 month: stored 1 month in absence of light; for Layer Thickness after 24 hrs: stored 1 day in absence of light; for Thickness Loss: 24 hrs versus 1 month storage
Protocol: 70 parts by weight of bis-acryloxymethyl-tricyclo-[5.2.1.0.^2,6 ]-decane and
30 parts by weight of 2,2-bis-4-(3-methacryloxy-2-hydroxypropoxy)-phenylpropane (Bis-GMA)
are stirred while carefully heated until a clear solution I is formed.
The solution I is cooled to room temperature and 0.5% by weight of a photoinitiator (selected from those listed in Table 2) are added with stirring until the solution is clear.
The resulting solution is introduced into a cylinder (5 mm diameter, 8 mm length; for greater thicknesses 20 mm). Thereafter the solution is exposed to radiation from a commercial dental radiator (Elipar-Visio/Espe) for 20 seconds, the polymer is removed from the cylinder, the soft or gel-like, incompletely polymerized components are removed with a plastic spatula, and the attained thickness of the layer is measured. To this end the solutions are stored prior to polymerization for 1 day and 1 month, respectively, in the absence of light.

[2] = UV/visible extinction at 400 nm; format: physicochemical; conditions: for Extinction at 400 nm: Table 2; for εmol at 400 nm: Table 1
[3] = Temperature course during polymerization of tooth filling composite; conditions: 3 mm height, 20 s exposure; for Time for reaching Tmax: cylinder 3 mm diameter; for Tmax: middle of cylinder 3 mm diameter
From the text: (§1) Tooth filling composites prepared according to Example 3 with the use of the photoinitiators listed in Table 3 are filled into cylinders (3 mm diameter, 3 mm height) in the middle of which the temperature can be measured during the polymerization. After 20 seconds of exposure to light from a commercial dental radiator (Elipar-Visio lamp/Espe) the structures are taken out and the soft layer is removed with toluene. From the weight difference the amount of uncured material in mg/cm^2 at the upper and lower surface of the cylinder is calculated. Moreover, the temperature course in time is followed by the thermosensor and a measuring instrument connected thereto.

[4] = Uncured soft layer at surface of tooth filling composite; conditions: 20 s exposure; for Soft Layer (amount of uncured material), upper surface: first of two values, upper surface of cylinder; for Soft Layer (amount of uncured material), lower surface: second of two values, lower surface of cylinder
From the text: as §1

SMILES: O=C(c1c(Cl)cccc1Cl)P(=O)(c1ccccc1)c1ccccc1 [2,6-Dichlorobenzoyl-diphenylphosphine oxide, reference compound]
Layer Thickness after 1 month [1]: 6.5 mm
Layer Thickness after 24 hrs [1]: 7 mm
Thickness Loss [1]: 7%
Extinction at 400 nm [2]: 190

SMILES: CCOc1ccc(P(=O)(C(=O)c2c(Cl)cccc2Cl)C(=O)c2c(Cl)cccc2Cl)cc1 [bis-(2,6-dichlorobenzoyl)-4-ethoxyphenylphosphine oxide]
εmol at 400 nm [2]: 690

SMILES: O=C(c1c(Cl)cccc1Cl)P(=O)(C(=O)c1c(Cl)cccc1Cl)c1ccc(-c2ccccc2)cc1 [bis-(2,6-dichlorobenzoyl)-4-biphenylylphosphine oxide]
εmol at 400 nm [2]: 800

SMILES: CCCCCCCCCCP(=O)(C(=O)c1c(Cl)cccc1Cl)C(=O)c1c(Cl)cccc1Cl [bis-(2,6-dichlorobenzoyl)decylphosphine oxide]
εmol at 400 nm [2]: 470

SMILES: O=C(c1c(Cl)cccc1Cl)P(=O)(C(=O)c1c(Cl)cccc1Cl)c1ccccc1 [bis-(2,6-dichlorobenzoyl)phenylphosphine oxide]
Layer Thickness after 1 month [1]: 14.5 mm
Layer Thickness after 24 hrs [1]: 15 mm
Thickness Loss [1]: 3%
εmol at 400 nm [2]: 607
Extinction at 400 nm [2]: 607

SMILES: Cc1ccc(C)c(P(=O)(C(=O)c2c(Cl)cccc2Cl)c2cc(C)ccc2C)c1 [2,6-Dichlorobenzoyl-bis-(2,5-dimethylphenyl)phosphine oxide, reference compound]
Layer Thickness after 1 month [1]: 4.1 mm
Layer Thickness after 24 hrs [1]: 5.1 mm
Thickness Loss [1]: 20%
Extinction at 400 nm [2]: 440

SMILES: CCCCCCCCc1ccc(P(=O)(C(=O)c2c(Cl)cccc2Cl)C(=O)c2c(Cl)cccc2Cl)cc1 [bis-(2,6-dichlorobenzoyl)-4-octylphenylphosphine oxide]
εmol at 400 nm [2]: 620

SMILES: Cc1cc(C)c(C(=O)P(=O)(c2ccccc2)c2ccccc2)c(C)c1 [2,4,6-Trimethylbenzoyldiphenylphosphine oxide, reference compound]
Time for reaching Tmax [3]: 18 s
Tmax [3]: 39.8 °C
Soft Layer (amount of uncured material), upper surface [4]: 1.8 mg/cm^2
Soft Layer (amount of uncured material), lower surface [4]: 2.0 mg/cm^2

SMILES: COc1c(Cl)c(C(=O)P(=O)(C(=O)c2c(Cl)c(OC)c(OC)c(OC)c2Cl)c2cc(C)ccc2C)c(Cl)c(OC)c1OC [bis-(2,6-dichloro-3,4,5-trimethoxybenzoyl)-2,5-dimethylphenylphosphine oxide]
εmol at 400 nm [2]: 640

More lines, main results first:

εmol at 400 nm [2]: 1680
SMILES: Cc1ccc2ccccc2c1C(=O)P(=O)(C(=O)c1c(C)ccc2ccccc12)c1ccc(-c2ccccc2)cc1 [bis-(2-methyl-1-naphthoyl)-4-biphenylylphosphine oxide]

εmol at 400 nm [2]: 505
SMILES: COc1cccc(OC)c1C(=O)P(=O)(C(=O)c1c(OC)cccc1OC)c1cc(C)ccc1C [bis-(2,6-dimethoxybenzoyl)-2,5-dimethylphenylphosphine oxide]

εmol at 400 nm [2]: 2700
SMILES: CCOc1ccc(P(=O)(C(=O)c2c(OC)ccc3ccccc23)C(=O)c2c(OC)ccc3ccccc23)cc1 [bis-(2-methoxy-1-naphthoyl)-4-ethoxyphenylphosphine oxide]

εmol at 400 nm [2]: 550
SMILES: COc1cccc(OC)c1C(=O)P(=O)(C(=O)c1c(OC)cccc1OC)c1ccccc1 [bis-(2,6-dimethoxybenzoyl)phenylphosphine oxide]

εmol at 400 nm [2]: 1040
SMILES: Cc1ccc2ccccc2c1C(=O)P(=O)(C(=O)c1c(C)ccc2ccccc12)c1ccccc1 [bis-(2-methyl-1-naphthoyl)phenylphosphine oxide]

εmol at 400 nm [2]: 2550
SMILES: COc1ccc2ccccc2c1C(=O)P(=O)(C(=O)c1c(OC)ccc2ccccc12)c1cc(C)ccc1C [Bis-(2-methoxy-1-naphthoyl-2,5-dimethylphenylphosphineoxide]

εmol at 400 nm [2]: 580
Extinction at 400 nm [2]: 580
SMILES: Cc1ccc(C)c(P(=O)(C(=O)c2c(Cl)cccc2Cl)C(=O)c2c(Cl)cccc2Cl)c1 [Bis-(2,6-dichlorobenzoyl)-2,5-dimethylphenylphosphine Oxide]
Layer Thickness after 1 month [1]: 14.5 mm
Layer Thickness after 24 hrs [1]: 15 mm
Thickness Loss [1]: 3%
Time for reaching Tmax [3]: 16 s
Tmax [3]: 43.7 °C
Soft Layer (amount of uncured material), upper surface [4]: 1.0 mg/cm^2
Soft Layer (amount of uncured material), lower surface [4]: 1.1 mg/cm^2
